Strand notation (5' to 3'): a small letter for the sugar, then the base; units joined by * are phosphorothioate-linked, units joined directly phosphodiester-linked; [ ] holds rarer units or linkages, { } end groups; capitals alone tell only the bases. k = constrained ethyl (cEt); [5mC] = 5-methylcytosine; d = 2'-deoxy (DNA)
What follows are substances tested on Yap1 mRNA (assay: Antisense inhibition of human Yap1 in A-431 cells by cEt gapmers, single dose (Example 2, RTS4814)). Conditions: A-431 cells, 5,000 cells per well, free uptake, 2,000 nM modified oligonucleotide, approx. 48 hours, RTS4814, normalized to RIBOGREEN; Table 4; asterisk (*) = targets amplicon region of primer probe set.
Assay type: cell-based
How it was run: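 A-431 cells (5,000/well) took up 2,000 nM 3-10-3 cEt gapmer by free uptake for ~48 h. Yap1 mRNA was quantified by qRT-PCR with primer probe set RTS4814, normalized to RIBOGREEN total RNA, and reported as % of untreated control.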

Going from “716376 (k[5mC]*kG*kA*dA*dG*dA*dT*dG*d[5mC]*dT*dG*dA*dG*k[5mC]*kT*kG; antisense) [Compound 716376]” to “716451 (k[5mC]*k[5mC]*k[5mC]*dA*dA*dG*d[5mC]*dT*dA*d[5mC]*dA*dA*d[5mC]*kT*kA*kT; antisense) [Compound 716451]”, the “YAP1 (% UTC)” value rises from 35 % UTC to 67 % UTC.

Same assay, conditions: Table 5; A-431 cells, 5,000 cells per well, free uptake, 2,000 nM modified oligonucleotide, approx. 48 hours; RTS4814; normalized to RIBOGREEN; Yap1 mRNA relative to untreated control cells

Going from “716404 (k[5mC]*kG*kT*d[5mC]*dA*dT*dT*dG*dT*dT*d[5mC]*dT*d[5mC]*kA*kA*kT; antisense) [Compound 716404]” to “716488 (k[5mC]*kA*kT*dT*dA*dT*dT*dA*d[5mC]*dT*d[5mC]*d[5mC]*dT*kG*kT*kA; antisense) [Compound 716488]”, the “YAP1 (% UTC)” value rises from 63 % UTC to 67 % UTC.

For “716353 (kG*k[5mC]*kA*dT*d[5mC]*d[5mC]*d[5mC]*d[5mC]*d[5mC]*dG*d[5mC]*d[5mC]*d[5mC]*k[5mC]*kG*kG; antisense) [Compound 716353]”, the “YAP1 (% UTC)” value was 98 % UTC.

Same assay, conditions: Table 6; A-431 cells, 5,000 cells per well, free uptake, 2,000 nM modified oligonucleotide, approx. 48 hours; RTS4814; normalized to RIBOGREEN; Yap1 mRNA relative to untreated control cells

First: 716438 (kA*kT*kT*dT*dT*dT*dG*dG*d[5mC]*dT*dT*dG*dT*k[5mC]*kA*kG; antisense) [Compound 716438]
Second: 716372 (kA*kT*kG*dA*dG*d[5mC]*dT*d[5mC]*dG*dA*dA*d[5mC]*dA*kT*kG*k[5mC]; antisense) [Compound 716372]
The “YAP1 (% UTC)” value of the first is lower: 32 % UTC for the first, 61 % UTC for the second.

Compared with “716570 (kA*kA*kG*dT*dG*dT*dT*dT*dA*dG*dG*d[5mC]*dA*kA*kG*k[5mC]; antisense) [Compound 716570]”, “716441 (kG*k[5mC]*k[5mC]*dT*dT*dG*dG*dT*dT*dT*d[5mC]*dA*dG*k[5mC]*kT*kA; antisense) [Compound 716441]” is higher in “YAP1 (% UTC)” value: 56 % UTC for the first, 57 % UTC for the second.

Same assay, conditions: Table 18; A-431 cells, 5,000 cells per well, free uptake, 2,000 nM modified oligonucleotide, approx. 48 hours; RTS4814; normalized to RIBOGREEN; Yap1 mRNA as percent of untreated control

First: 1075428 (antisense kT*kA*kT*dA*dT*dA*dA*dG*dG*d[5mC]*dA*dT*d[5mC]*kT*kT*kG) [Compound 1075428]
Second: 1076388 (kG*kA*kA*dA*dT*dA*dT*dT*d[5mC]*dG*dA*dG*dA*kA*kG*kA; antisense) [Compound 1076388]
The “YAP1 (% UTC)” value of the first is higher: 53 % UTC for the first, 6 % UTC for the second.

Same assay, conditions: Table 19; A-431 cells, 5,000 cells per well, free uptake, 2,000 nM modified oligonucleotide, approx. 48 hours; RTS4814; normalized to RIBOGREEN; Yap1 mRNA as percent of untreated control

For “1074693 (antisense k[5mC]*k[5mC]*k[5mC]*d[5mC]*d[5mC]*d[5mC]*d[5mC]*d[5mC]*dA*dA*dA*d[5mC]*dT*kT*kT*k[5mC]) [Compound 1074693]”, the “YAP1 (% UTC)” value was 92 % UTC.

Same assay, conditions: Table 20; Yap1 mRNA, percent of untreated control; 3-10-3 cEt gapmers targeting SEQ ID NO.: 1 and 2

Going from “1074118 (antisense k[5mC]*kA*k[5mC]*dT*d[5mC]*dG*dG*dA*d[5mC]*d[5mC]*dT*dG*d[5mC]*kG*kG*k[5mC]) [Compound 1074118]” to “1075814 (kT*kA*kT*dA*dA*dA*dG*d[5mC]*dA*dG*dG*dG*d[5mC]*kA*kT*kT; antisense) [Compound 1075814]”, the “YAP1 (% UTC)” value falls from 66 % UTC to 47 % UTC.

Compared with “1075974 (kA*kA*kA*dA*dA*dA*dT*dT*d[5mC]*d[5mC]*dG*d[5mC]*dA*kA*k[5mC]*kA; antisense) [Compound 1075974]”, “1074566 (antisense k[5mC]*kA*k[5mC]*dT*dG*dA*dA*dT*dT*d[5mC]*d[5mC]*dA*dA*kT*k[5mC]*kG) [Compound 1074566]” is lower in “YAP1 (% UTC)” value: 39 % UTC for the first, 3 % UTC for the second.

Same assay, conditions: Table 21; Yap1 mRNA, percent of untreated control; 3-10-3 cEt gapmers targeting SEQ ID NO.: 1 and 2

Compared with “1076039 (kG*kA*kT*dT*dA*dG*dA*dG*d[5mC]*dT*dG*dT*dA*kT*kT*k[5mC]; antisense) [Compound 1076039]”, “1075175 (antisense kA*k[5mC]*kT*dG*dA*dA*dA*dG*dA*dT*dT*d[5mC]*d[5mC]*kA*kT*kG) [Compound 1075175]” is higher in “YAP1 (% UTC)” value: 29 % UTC for the first, 99 % UTC for the second.

With “1076071 (kT*kA*kT*dT*dA*dG*dT*dA*dA*dT*dG*d[5mC]*dA*k[5mC]*kA*kG; antisense) [Compound 1076071]” the “YAP1 (% UTC)” value was 14 % UTC.

Same assay, conditions: Table 22; Yap1 mRNA as percent of untreated control; 3-10-3 cEt gapmers; single dose

First: 1076200 (kG*kA*kT*dT*dA*d[5mC]*dA*d[5mC]*dT*dA*dT*d[5mC]*dA*kA*kA*kA; antisense) [Compound 1076200]
Second: 1075400 (antisense kT*kA*kG*d[5mC]*dA*dA*dT*dA*dG*dT*d[5mC]*dA*dG*kG*kT*kA) [Compound 1075400]
The “YAP1 (% UTC)” value of the first is higher: 67 % UTC for the first, 11 % UTC for the second.

Compared with “1074120 (antisense kG*k[5mC]*kG*dA*dG*dG*d[5mC]*dA*d[5mC]*dT*d[5mC]*dG*dG*kA*k[5mC]*k[5mC]) [Compound 1074120]”, “1074792 (kA*kT*k[5mC]*dA*dA*dT*dG*dT*dG*d[5mC]*dT*d[5mC]*d[5mC]*kA*kT*k[5mC]; antisense) [Compound 1074792]” is lower in “YAP1 (% UTC)” value: 50 % UTC for the first, 4 % UTC for the second.

Same assay, conditions: Table 23; Yap1 mRNA as percent of untreated control; 3-10-3 cEt gapmers; single dose

Going from “1074825 (kA*k[5mC]*k[5mC]*dT*dG*dA*dG*d[5mC]*dA*d[5mC]*dT*d[5mC]*dA*kT*kT*kT; antisense) [Compound 1074825]” to “1074697 (antisense kA*kT*k[5mC]*dA*dA*dG*dG*dT*d[5mC]*d[5mC]*d[5mC]*d[5mC]*d[5mC]*kT*kA*kA) [Compound 1074697]”, the “YAP1 (% UTC)” value rises from 36 % UTC to 44 % UTC.

Same assay, conditions: Table 24; Yap1 mRNA as percent of untreated control; 3-10-3 cEt gapmers targeting SEQ ID NO.: 1, and 2

Compared with “1075146 (antisense kG*kT*kA*dT*dT*dA*dA*dG*dG*dG*dA*dT*dT*kT*kT*k[5mC]) [Compound 1075146]”, “1075690 (k[5mC]*kG*kT*dT*dA*dA*d[5mC]*dA*dA*d[5mC]*dT*dA*dT*kA*k[5mC]*kA; antisense) [Compound 1075690]” is higher in “YAP1 (% UTC)” value: 8 % UTC for the first, 33 % UTC for the second.

Compared with “1076362 (k[5mC]*k[5mC]*kA*d[5mC]*dT*dA*dA*dA*dT*dA*dA*dA*dG*k[5mC]*kA*kG; antisense) [Compound 1076362]”, “1076202 (kT*k[5mC]*kT*dA*dA*dA*dA*dA*dG*dA*d[5mC]*dA*dG*kG*kG*k[5mC]; antisense) [Compound 1076202]” is higher in “YAP1 (% UTC)” value: 16 % UTC for the first, 32 % UTC for the second.

“1075242 (antisense k[5mC]*kA*kG*dG*dG*dA*dT*dA*dA*dT*dT*dA*d[5mC]*kT*kA*kA) [Compound 1075242]” was tested, and the “YAP1 (% UTC)” value was 7 % UTC.

Same assay, conditions: Table 25; Yap1 mRNA as percent of untreated control; 3-10-3 cEt gapmers targeting SEQ ID NO.: 1, and 2

Going from “1074475 (kA*k[5mC]*k[5mC]*dA*dA*d[5mC]*d[5mC]*d[5mC]*d[5mC]*d[5mC]*d[5mC]*d[5mC]*dA*k[5mC]*k[5mC]*kG; antisense) [Compound 1074475]” to “1075339 (kA*k[5mC]*k[5mC]*d[5mC]*dA*dA*dA*dA*dA*d[5mC]*dT*dA*dG*k[5mC]*kT*kT; antisense) [Compound 1075339]”, the “YAP1 (% UTC)” value falls from 72 % UTC to 70 % UTC.

Compared with “1075307 (kA*kT*kT*dA*dA*dA*d[5mC]*dG*dA*dA*dA*d[5mC]*dA*k[5mC]*kG*kG; antisense) [Compound 1075307]”, “1076171 (kA*kT*kT*dA*dG*dT*dA*dA*dA*dG*dA*dG*dT*kA*k[5mC]*kT; antisense) [Compound 1076171]” is higher in “YAP1 (% UTC)” value: 28 % UTC for the first, 30 % UTC for the second.

In the case of “1076267 (kA*kT*kT*dT*dA*dA*dG*dG*dT*dG*d[5mC]*dA*dT*kA*kA*kG; antisense) [Compound 1076267]”, the “YAP1 (% UTC)” value is reported as 13 % UTC.

Same assay, conditions: Table 32; Yap1 mRNA, percent of untreated control; 3-10-3 cEt gapmers targeting SEQ ID NO.: 1, and 2

Going from “1075666 (antisense kA*kA*kA*dT*dT*dT*dA*dG*dT*dT*dG*dT*dG*k[5mC]*kA*k[5mC]) [compound 1075666]” to “1074642 (antisense kG*kG*kG*d[5mC]*d[5mC]*dA*dA*dA*dA*dT*dA*d[5mC]*dT*kT*kA*kG) [compound 1074642]”, the “YAP1 (% UTC)” value falls from 106 % UTC to 78 % UTC.

Same assay, conditions: Table 33; Yap1 mRNA, percent of untreated control; 3-10-3 cEt gapmers targeting SEQ ID NO.: 1, and 2

Going from “1075667 (antisense k[5mC]*kA*kA*dA*dT*dT*dT*dA*dG*dT*dT*dG*dT*kG*k[5mC]*kA) [compound 1075667]” to “1075123 (k[5mC]*kT*kT*dT*dA*dG*dG*dA*dA*dA*dG*dG*dG*kT*kA*kT; antisense) [compound 1075123]”, the “YAP1 (% UTC)” value falls from 109 % UTC to 21 % UTC.

First: 1076499 (kG*k[5mC]*kT*dA*dA*dT*dA*dT*dA*dT*d[5mC]*d[5mC]*dA*kA*kT*kT; antisense) [compound 1076499]
Second: 1076051 (k[5mC]*kT*kT*dA*dA*d[5mC]*dT*dA*dT*dT*d[5mC]*dA*dG*k[5mC]*k[5mC]*k[5mC]; antisense) [compound 1076051]
The “YAP1 (% UTC)” value of the first is higher: 37 % UTC for the first, 21 % UTC for the second.

Same assay, conditions: Yap1 mRNA as percent of untreated control; A-431 cells; 3-10-3 cEt gapmers targeting SEQ ID NO.: 1, and 2; Table 30

For “1074416 (k[5mC]*kT*kT*dT*dA*dG*dA*dG*d[5mC]*d[5mC]*dA*dA*d[5mC]*kT*kG*kT; antisense) [compound 1074416]”, the “YAP1 (% UTC)” value was 9 % UTC.

Same assay, conditions: Yap1 mRNA as percent of untreated control; A-431 cells; 3-10-3 cEt gapmers targeting SEQ ID NO.: 1, and 2; Table 31

Compared with “1074321 (antisense kG*kG*kG*d[5mC]*dT*dA*dA*d[5mC]*dT*d[5mC]*d[5mC]*dT*dG*kA*k[5mC]*kA) [compound 1074321]”, “1074993 (antisense kT*k[5mC]*kT*dA*dA*dT*d[5mC]*dA*dA*d[5mC]*dA*d[5mC]*dT*kG*kG*kA) [compound 1074993]” is lower in “YAP1 (% UTC)” value: 73 % UTC for the first, 65 % UTC for the second.

In the case of “1076145 (k[5mC]*k[5mC]*kT*dT*dA*dT*dA*dG*dG*dT*dT*dA*dT*kA*kG*kT; antisense) [compound 1076145]”, the “YAP1 (% UTC)” value is reported as 41 % UTC.

From patent US11214803B2, “Modulators of YAP1 expression” (Ionis Pharmaceuticals, Inc., priority 2019, dated 2022)
